These results are taken from patent US9756858B2, “Insecticides” (Syngenta Participations AG, priority 2011, dated 2017).

Common to all, as to type: in vivo
Experiment [1] has as its system Aphis craccivora. The experiment is described as follows: Activity against Aphis craccivora (mixed population, contact/feeding), comparison with state of the art. The note with it: for Death rate (%) after 5 days: pea seedlings, spray. As for the experimental part:
Comparison of the Insecticidal Activity of Compounds According to the Invention with the Structurally Closest Compound from the State of the Art (Compound No. 39 Described on Page 66 of WO2009/149858): Example B8: Activity Against Aphis craccivora (mixed population, contact/feeding) Pea seedlings, infested with an aphid population of mixed ages, were treated with diluted test solutions in a spray chamber. […]

Experiment [2] deals with Plutella xylostella (diamond back moth). The experiment is described as follows: Plutella xylostella (larvicide, feeding/residual contact, preventive). The note with it: 200 ppm; artificial diet, L2 larvae, 5 days incubation. How it is done: Example B3: Plutella xylostella (Diamond Back Moth) (larvicide, feeding/residual contact activity, preventive) 24-well microtiter plate (MTP) with artificial diet was treated with test solutions by pipetting. After drying, the MTP's were infested with larvae (L2) (10-15 per well). After an incubation period of 5 days, samples were checked for larval mortality, antifeedant and growth regulation.

Experiment [3] concerns Tetranychus urticae (two-spotted spider mite). Kind of experiment: Activity against Tetranychus urticae (mixed population, feeding/residual contact, preventive). The following applies: foliar, 192 h, bean leaf discs, 8 days. An excerpt:
Example B7: Activity Against Tetranychus urticae (Two-Spotted Spider Mite) (mixed population, feeding/residual contact activity, preventive) Bean leaf discs on agar in 24-well microtiter plates are sprayed with test solutions. After drying, the leaf discs are infested with mite populations of mixed ages. 8 days later, discs are checked for egg mortality, larval mortality, and adult mortality.

Experiment [4] has as its system Myzus persicae (green peach aphid). Kind of experiment: Activity against Myzus persicae (mixed population, feeding/residual contact, preventive). The note with it: foliar, 144 h, sunflower leaf discs, 6 days incubation. As for the experimental part:
Example B4: Activity Against Myzus Persicae (Green Peach Aphid) (mixed population, feeding/residual contact activity, preventive) Sunflower leaf discs were placed on agar in a 24-well microtiter plate and sprayed with test solutions. After drying, the leaf discs were infested with an aphid population of mixed ages. After an incubation period of 6 days, samples were checked for mortality and special effects (e.g. phytotoxicity).

For experiment [5] the test system is unchanged. The experiment is described as follows: Activity against Myzus persicae (mixed population, systemic/feeding, curative). The note with it: 144 h, roots of pea seedlings in test solution, 6 days. An excerpt: Example B5: Activity Against Myzus persicae (Green Peach Aphid) (mixed population, systemic/feeding activity, curative) Roots of pea seedlings, infested with an aphid population of mixed ages, were placed directly in the test solutions. 6 days after introduction, samples were checked for mortality and special effects on the plant.

Experiment [6] deals with Spodoptera littoralis (Egyptian cotton leafworm). The experiment is described as follows: Activity against Spodoptera littoralis (larvicide, feeding/residual contact, preventive). The following applies: 200 ppm; cotton leaf discs, L1 larvae, 3 days after treatment. The text has this: Example B1: Activity Against Spodoptera littoralis (Egyptian Cotton Leafworm) (larvicide, feeding/residual contact activity, preventive) Cotton leaf discs were placed on agar in a 24-well microtiter plate and sprayed with test solutions. After drying, the leaf discs were infested with 5 L1 larvae. The samples were checked for mortality, repellent effect, feeding behaviour, and growth regulation 3 days after treatment.

For `Cc1nc(-c2cccnc2)sc1C(=O)NCC(F)(F)F` [Comp. 39, reference compound], the “Death rate (%) after 5 days” value is 35% in experiment [1] (3 ppm), 85% in experiment [1] (12.5 ppm), 99% in experiment [1] (25 ppm) and 99% in experiment [1] (50 ppm).
In the case of `Clc1csc(C2C=CC=NC2c2sc(-c3cccnc3)nc2Cl)n1` (centres unmarked) [Compound 1.001], the activity entry in experiment [2] is on record as “over 80%”. The compound also showed a pest or weed control at 200 ppm in experiment [3] greater than 80%.
With `O=C(NCC(F)(F)F)c1sc(-c2cccnc2)nc1Cl` [Compound 1.005], the “Death rate (%) after 5 days” value came out at 0% in experiment [1] (3 ppm), 0% in experiment [1] (12.5 ppm), 30% in experiment [1] (25 ppm) and 90% in experiment [1] (50 ppm). The “insecticidal action on Aphis craccivora compared with the compound from the state of the art” value in experiment [1] (comparison with Comp. 39, especially at 25, 12.5 and 3 ppm) is on record as “substantially better insecticidal action”. The compound also gave a pest or weed control at 200 ppm in experiment [4] greater than 80%.
Compound `O=C(NC1CSC1)c1sc(-c2cccnc2)nc1Cl` [Compound 1.007] showed a pest or weed control at 24 ppm in experiment [5] greater than 80%. In addition, the pest or weed control at 200 ppm in experiment [4] was greater than 80%.
The compound `Clc1cccc(-c2sc(-c3cccnc3)nc2Cl)n1` [Compound 1.011] returned a pest or weed control at 200 ppm in experiment [4] greater than 80%.
For the compound `CS(=O)(=O)c1ccc(CNC(=O)c2sc(-c3cccnc3)nc2Cl)cc1` [Compound 1.021], the pest or weed control at 200 ppm in experiment [4] was greater than 80%.
The same measure, in the same setting: then `O=C(NCC1CCCO1)c1sc(-c2cccnc2)nc1Cl` (centres unmarked) [Compound 1.026], with greater than 80%.
In experiment [4], `O=C(NCc1ccc2c(c1)OCCO2)c1sc(-c2cccnc2)nc1Cl` [Compound 1.038] returned a pest or weed control at 200 ppm greater than 80%.
`CC(=O)NCCNC(=O)c1sc(-c2cccnc2)nc1Cl` [Compound 1.039] came in with a pest or weed control at 200 ppm in experiment [4] greater than 80%.
As to `O=C(Nc1cccc2ncccc12)c1sc(-c2cccnc2)nc1Cl` [Compound 1.053], in experiment [4], the pest or weed control at 200 ppm is greater than 80%.
With `Cc1cc(NC(=O)c2sc(-c3cccnc3)nc2Cl)n(C)n1` [Compound 1.069], the pest or weed control at 200 ppm in experiment [4] was greater than 80%.
In the case of `Cc1cc(O)nc(NC(=O)c2sc(-c3cccnc3)nc2Cl)n1` [Compound 1.072], the pest or weed control at 200 ppm in experiment [4] is greater than 80%.
The compound `O=C(Nc1ccc(Oc2ccccc2)nc1)c1sc(-c2cccnc2)nc1Cl` [Compound 1.079] returned a pest or weed control at 200 ppm in experiment [4] greater than 80%.
Consider `O=C(NC1CS(=O)(=O)C1)c1sc(-c2cccnc2)nc1Cl` [Compound 1.085], for which, in experiment [4], the pest or weed control at 200 ppm was greater than 80%.
`CSCC(C)(C)NC(=O)c1sc(-c2cccnc2)nc1Cl` [Compound 1.086] gave a pest or weed control at 24 ppm in experiment [5] greater than 80%. In addition, the pest or weed control at 200 ppm in experiment [4] was greater than 80%.
As for `O=C(NC1CCSC1)c1sc(-c2cccnc2)nc1Cl` (centres unmarked) [Compound 1.088], the pest or weed control at 24 ppm in experiment [5] was greater than 80%. Besides, in experiment [4], the pest or weed control at 200 ppm was greater than 80%.
In experiment [4], `O=C(NC1C[S+]([O-])C1)c1sc(-c2cccnc2)nc1Cl` (centres unmarked) [Compound 1.089] had a pest or weed control at 200 ppm greater than 80%.
In the case of `O=C(NC1C[S+]([O-])C1)c1sc(-c2cccnc2)nc1Cl` (centres unmarked) [Compound 1.090], the pest or weed control at 24 ppm in experiment [5] was greater than 80%.
In the case of `CCN1OCC(NC(=O)c2sc(-c3cccnc3)nc2Cl)C1=O` (centres unmarked) [Compound 1.093], in experiment [5], the pest or weed control at 24 ppm is greater than 80%.
With `O=C(NCCC1CS(=O)(=O)C1)c1sc(-c2cccnc2)nc1Cl` [Compound 1.094], in experiment [4], the pest or weed control at 200 ppm was greater than 80%.
The compound `O=C(NC1CON(CC(F)(F)F)C1=O)c1sc(-c2cccnc2)nc1Cl` (centres unmarked) [Compound 1.095] yielded a pest or weed control at 24 ppm in experiment [5] greater than 80%. This compound gave a pest or weed control at 200 ppm in experiment [4] greater than 80%.
Compound `O=C(c1sc(-c2cccnc2)nc1Cl)N1CCC[C@H]1COc1c(Cl)cc(Cl)cc1Cl` [Compound 1.096] returned a pest or weed control at 200 ppm in experiment [3] greater than 80%.
For the compound `C[C@@H](NC(=O)c1sc(-c2cccnc2)nc1Cl)C(F)(F)F` [Compound 1.100], the pest or weed control at 200 ppm in experiment [4] was greater than 80%.
For `O=C(NC1(C2CC2)CC1)c1sc(-c2cccnc2)nc1Cl` [Compound 1.119], in experiment [4], the pest or weed control at 200 ppm was greater than 80%.
`CON1CCC(NC(=O)c2sc(-c3cccnc3)nc2Cl)CC1` [Compound 1.120] returned a pest or weed control at 24 ppm in experiment [5] greater than 80%. The compound also came in with a pest or weed control at 200 ppm in experiment [4] greater than 80%.
In turn, `CN(Cc1ccc(Cl)nc1)C(=O)c1sc(-c2cccnc2)nc1Cl` [Compound 1.124] came in with a pest or weed control at 200 ppm in experiment [3] greater than 80%.
Regarding `COCC#CC(C)(C)NC(=O)c1sc(-c2cccnc2)nc1Cl` [Compound 1.130], the pest or weed control at 200 ppm in experiment [4] is greater than 80%.
Compound `CC(C)(NC(=O)c1sc(-c2cccnc2)nc1Cl)C(=O)c1ccc(Cl)cc1` [Compound 1.131] gave a pest or weed control at 200 ppm in experiment [3] greater than 80%.
With `CC(C)(NC(=O)c1sc(-c2cccnc2)nc1Cl)C(=O)c1cccc(Br)c1` [Compound 1.132], in experiment [3], the pest or weed control at 200 ppm was greater than 80%.
Turning to `COC(=O)c1ccc(NC(=O)c2sc(-c3cccnc3)nc2Cl)nc1` [Compound 1.138], the pest or weed control at 200 ppm in experiment [3] was greater than 80%.
The compound `CCCCNC(=O)c1sc(-c2cccnc2)nc1Cl` [Compound 1.142] had a pest or weed control at 200 ppm in experiment [4] greater than 80%.
On to `CC1(NC(=O)c2sc(-c3cccnc3)nc2Cl)CSC1` [Compound 1.143], for which, in experiment [5], the pest or weed control at 24 ppm was greater than 80%.
The compound `O=C(NC1CCC1)c1sc(-c2cccnc2)nc1Cl` [Compound 1.144] came in with a pest or weed control at 200 ppm in experiment [4] greater than 80%.
In experiment [5], `C[S+]([O-])CCNC(=O)c1sc(-c2cccnc2)nc1Cl` (centres unmarked) [Compound 1.145] registered a pest or weed control at 24 ppm greater than 80%. The pest or weed control at 200 ppm in experiment [4] was greater than 80%.
Consider `CSCCNC(=O)c1sc(-c2cccnc2)nc1Cl` [Compound 1.146], for which the pest or weed control at 24 ppm in experiment [5] was greater than 80%. Besides, in experiment [4], the pest or weed control at 200 ppm was greater than 80%.
In experiment [5], `O=C(NCC1CCS1)c1sc(-c2cccnc2)nc1Cl` (centres unmarked) [Compound 1.147] gave a pest or weed control at 24 ppm greater than 80%. Further, the pest or weed control at 200 ppm in experiment [4] is greater than 80%.
In turn, `O=C(NCCC1CSC1)c1sc(-c2cccnc2)nc1Cl` [Compound 1.148] registered a pest or weed control at 24 ppm in experiment [5] greater than 80%. Further, the pest or weed control at 200 ppm in experiment [4] is greater than 80%.
The compound `CC(C)(C)NC(=O)c1sc(-c2cccnc2)nc1Cl` [Compound 1.149] returned a pest or weed control at 200 ppm in experiment [4] greater than 80%.
In the case of `COCC(C)(C#N)NC(=O)c1sc(-c2cccnc2)nc1Cl` (centres unmarked) [Compound 1.150], the pest or weed control at 200 ppm in experiment [4] was greater than 80%.
`C#CC(C)(C)NC(=O)c1sc(-c2cccnc2)nc1Cl` [Compound 1.152] showed a pest or weed control at 200 ppm in experiment [4] greater than 80%.
`CC#CC(C)(C)NC(=O)c1sc(-c2cccnc2)nc1Cl` [Compound 1.153]: the pest or weed control at 200 ppm in experiment [4] was greater than 80%.
With `COC(c1ccc(Cl)cc1Cl)C(C)NC(=O)c1sc(-c2cccnc2)nc1Cl` (centres unmarked) [Compound 1.156], the activity entry in experiment [6] is “over 80%”. The compound also yielded a pest or weed control at 200 ppm in experiment [3] greater than 80%.
In experiment [3], `COc1cc(-c2sc(-c3cccnc3)nc2Cl)nc(OC)n1` [Compound 1.160] showed a pest or weed control at 200 ppm greater than 80%.
